Laboratory results from US10493043B2, “Pharmaceutical composition for preventing or treating autoimmune diseases comprising cedrol or derivatives thereof, or pharmaceutically acceptable salts thereof” (University of Seoul Industry Cooperation Foundation, priority 2017, dated 2019).

What was measured:
psoriasis induced mice [1] = test: Therapeutic (recovery) effect in psoriasis induced mice after termination of imiquimod application; type: in vivo, mouse; conditions: for PASI reflecting skin flair: distilled water 0.7±0.6; for number of mice showing hemorrhage spots / number of mice showing skin wrinkles: oral 100 mg/kg
Method: (§1) Imiquimod was applied to the psoriasis induced mice which had developed psoriasis for a week in Example <2-1>. The application was stopped 8 days after the application began. The groups CON and IMQ were treated with distilled water, the group C was treated with cedrol, the group CA was treated with cedryl acetate, the group CE was treated with alpha-cedrene alone at the concentration of 100 mg/kg in 200 ? , every day via oral-administration. Day 8 was the day the imiquimod application was stopped, since then the compounds were administered for 1 week once a day, during which photo-recording was performed (FIGS. 13A˜13D).
The psoriasis area severity index (Psoriasis Area Severity Index, PASI) was given from the point 1 to point 4, based on which the recovery effect on the ear thickness was evaluated.
Then, the psoriasis area severity index (Psoriasis Area Severity Index, PASI) was calculated, based on which the recovery effect on keratosis was evaluated.
The psoriasis area severity index obtained in Examples <3-2> and <3-4> was accumulated to compare the psoriasis area severity index for ear thickness, keratosis and skin flair of the mouse groups respectively treated with cedrol, cedryl acetate, and alpha-cedrene via oral-administration.
The psoriasis induced mice orally administered with cedrol, cedryl acetate, and alpha-cedrene of Example <3-1> were observed by the naked eye, and the number of mice showing the recovery of hemorrhage spots was counted.
The psoriasis induced mice orally administered with cedrol, cedryl acetate, and alpha-cedrene of Example <3-1> were observed by the naked eye, and the number of mice showing the recovery of skin wrinkles was counted.

human IL-17A expression = test: IL-17A inhibition assay in IL-17 luciferase-(LUCPorter) stable reporter cell line; conditions: 10, 100, 1,000 μg/ml
psoriasis induced mice [2] = test: Delay of psoriasis development in imiquimod-induced mice (ear thickness, keratosis, skin flair, pain, hemorrhage spots, wrinkles); type: in vivo, mouse; conditions: for cumulative psoriasis area severity index (ear thickness, keratosis, skin flair), in words: oral 100 mg/kg once a day, FIG. 7; for number of mice showing hemorrhage spots / number of mice showing skin wrinkles / number of mice showing skin pain: oral 100 mg/kg
Method: (§2) To investigate the delayed effect of cedrol, cedryl acetate, and alpha-cedrene on the development of psoriasis, total 5 groups of mice were prepared (8 mice/group). First, the hair of the entire back of the 8-week-old male Balb/c mouse whose immune system was weakened was removed by using a hair clipper (Kimlaube Hair pen 325,327, Rikei, Korea). In the middle of the shaved back of the mouse, 2 mg of imiquimod (3M Health Care Limited, England) was applied in the area of 2 cm×1.5 cm and also 1,125 mg of imiquimod was applied on the right ear of the mouse every day once a day to induce psoriasis.
The mice prepared above were divided into the distilled water treated group (IMQ), the cedrol treated group (C), the cedryl acetate treated group (CA), and the alpha-cedrene treated group (CE). At this time, the mice were orally treated with distilled water at the concentration of 200 ? /mouse and cedrol or its derivatives at the concentration of 200 ? /mouse (100 mg/kg). The day when distilled water or the compound administration started was recorded as day 0 and the administration was performed once a day for a week, during which photo-recording was performed every day (FIGS. 2A˜2D). In the meantime, instead of applying imiquimod, 40 mg of vaseline was applied on the back of the control group (CONT) and 22.5 mg of vaseline was applied on the right ear of the control group. And the control group was orally administered with distilled water (200 ? /mouse).
Then, the psoriasis area severity index (PASI) was calculated with the range of 1˜4 to confirm the reduction effect of the compounds on the ear thickness.
Then, the psoriasis area severity index (PASI) was calculated to confirm the reduction effect of the compounds on keratosis. Keratosis is a symptom of psoriasis. The application of IMQ can induce keratosis.
Then, the psoriasis area severity index (PASI) was calculated to confirm the reduction effect of the compounds on skin flair. Skin flair is a symptom of psoriasis. The application of IMQ can induce skin flair.
The psoriasis area severity index obtained in Examples <2-3> and <2-5> was accumulated to compare the psoriasis area severity index for ear thickness, keratosis and skin flair of the mouse groups respectively treated with cedrol, cedryl acetate, and alpha-cedrene via oral-administration.
When the back of the psoriasis induced mice orally administered with cedrol, cedryl acetate, and alpha-cedrene of Example <2-1> was pinched, those mice who sound painfully with strong rejection were counted. Skin pain is a symptom of psoriasis, and when IMQ is applied, skin pain becomes stronger as time goes by.
The psoriasis induced mice orally administered with cedrol, cedryl acetate, and alpha-cedrene of Example <2-1> were observed by the naked eye, and the number of mice showing hemorrhage spots was counted. Hemorrhage spot is a symptom of psoriasis, and when IMQ is applied, the number of skin hemorrhage spots increases as time goes by.
The psoriasis induced mice orally administered with cedrol, cedryl acetate, and alpha-cedrene of Example <2-1> were observed by the naked eye, and the number of mice showing skin wrinkles was counted. Skin wrinkle is a symptom of psoriasis, and when IMQ is applied, skin keratinization increases and accordingly skin wrinkles are formed as time goes by.

psoriasis induced mice [3] = test: Hair regrowth in psoriasis induced mice after termination of imiquimod application; type: in vivo, mouse; conditions: oral 100 mg/kg
Method: as §1
The psoriasis induced mice orally administered with cedrol, cedryl acetate, and alpha-cedrene of Example <3-1> were observed by the naked eye, and the number of mice showing hair regrowth was counted.

[4] = Weight changes in psoriasis induced mice during oral administration; type: in vivo, mouse; conditions: oral 100 mg/kg once a day during IMQ application, for 7 days; IMQ alone reduced by 0.48 g
Method: as §2
The mice prepared above were divided into the distilled water treated group (IMQ), the cedrol treated group (C), the cedryl acetate treated group (CA), and the alpha-cedrene treated group (CE). […] The day when distilled water or the compound administration started was recorded as day 0 and the administration was performed once a day for a week, during which photo-recording was performed every day (FIGS. 2A˜2D). […]
To compare the weight changes in the psoriasis induced mice according to the oral administration of cedrol, cedryl acetate, and alpha-cedrene of Example <2-1>, the weight of each mouse was measured at the same time every day for a week.

[5] = oral 100 mg/kg once a day, day 16
[6] = day 16, distilled water 1 mouse
[7] = day 16, distilled water one mouse
[8] = day 7, 8 mice/group, IMQ alone 3 mice
[9] = day 7, 8 mice/group, IMQ alone 5 mice
[10] = oral 100 mg/kg once a day, day 15

Compound	PASI reflecting skin flair (psoriasis induced mice [1]; [5])	number of mice showing hemorrhage spots (psoriasis induced mice [1]; [6])	number of mice showing skin wrinkles (psoriasis induced mice [1]; [7])	suppression of the expression of IL-17A (in words) (human IL-17A expression)	cumulative psoriasis area severity index (ear thickness, keratosis, skin flair), in words (psoriasis induced mice [2])	number of mice showing hemorrhage spots (psoriasis induced mice [2]; day 5, 8 mice/group)	number of mice showing skin wrinkles (psoriasis induced mice [2]; [8])	number of mice showing hemorrhage spots (psoriasis induced mice [2]; [9])	number of mice showing hair regrowth (psoriasis induced mice [3]; day 16, distilled water 5 mice)	number of mice showing skin wrinkles (psoriasis induced mice [2]; day 5, 8 mice/group)	other results
CC1=CC[C@@]23C[C@@H]1C(C)(C)[C@@H]2CC[C@H]3C [alpha-cedrene, Alpha-cedrene]	disappeared	no mouse	no mouse	dose-dependently	strongest reduction effect	two mice	one mouse	one mouse	all the mice	–	number of mice showing skin wrinkles (psoriasis induced mice [2]; day 6, 8 mice/group): one mouse; number of mice showing skin pain (psoriasis induced mice [2]; during the 7 day observation period): no mice; number of mice showing hair regrowth (psoriasis induced mice [3]; day 13): one mouse
C[C@@H]1CC[C@H]2C(C)(C)[C@H]3C[C@@]12CC[C@@]3(C)O [cedrol, Cedrol]	disappeared	–	–	dose-dependently	–	–	–	–	all the mice	one mouse	cumulative psoriasis area severity index (ear thickness, keratosis, skin flair), recovery in words (psoriasis induced mice [1]; oral 100 mg/kg once a day, FIG. 17): strongest recovery effect; PASI reflecting keratosis (psoriasis induced mice [1]; [10]): recovered to normal; number of mice showing skin wrinkles (psoriasis induced mice [1]; after day 15): no mouse; number of mice showing hemorrhage spots (psoriasis induced mice [1]; day 12): no mouse; weight change (increase) [4]: 0.025 g; number of mice showing hemorrhage spots (psoriasis induced mice [2]; day 4, 8 mice/group): one mouse; number of mice showing skin pain (psoriasis induced mice [2]; day 4, 8 mice/group): one mouse; number of mice showing skin pain (psoriasis induced mice [2]; day 5, 8 mice/group): no mice
CC(=O)O[C@]1(C)CC[C@@]23C[C@@H]1C(C)(C)[C@@H]2CC[C@H]3C [cedryl acetate, Cedryl acetate]	–	no mouse	no mouse	dose-dependently	strongest reduction effect	one mouse	one mouse	one mouse	–	one mouse	PASI reflecting the ear thickness (psoriasis induced mice [1]; [10]): recovered to normal; number of mice showing skin pain (psoriasis induced mice [2]; day 6, 8 mice/group): one mouse; number of mice showing skin pain (psoriasis induced mice [2]; [9]): no mice; number of mice showing hair regrowth (psoriasis induced mice [3]; day 14, distilled water one mouse): one mouse
